Assay: Single solvent slurries of (Z)-endoxifen (XRPD of recovered solid)
Assay type: physicochemical
Experimental: Further solubility analyses were then performed for solvents which formed suspensions at 50° C. […] The suspensions were recovered and filtered with a nylon filter (0.22 μm) during centrifugation at 4000 rpm for 3 minutes. The solid (Z)-endoxifen collected through filtration was analyzed by XRPD. (Z)-endoxifen remaining in the filtrate was precipitated by addition of antisolvent and also subjected to XRPD analysis.

[1] = SLHT-1D-ACN(100 mg/ml) - Form I reference, FIG. 76: acetonitrile, 100 mg/mL, 50° C., 1 d
[2] = SLHT-1D-ACT(100 mg/ml), FIG. 77: acetone, 100 mg/mL, 40° C., 1 d
[3] = SLRT-14D-BME, FIG. 74: butyl methyl ether, 10 mg/mL, RT, 14 d

CC/C(=C(\c1ccc(O)cc1)c1ccc(OCCNC)cc1)c1ccccc1 [(Z)-endoxifen, (Z)-4-(1-(4-(2-(methylamino)ethoxy)phenyl)-2-phenylbut-1-enyl)phenol]
Output Main phase [phase] (SLHT-1D-ACN(50 mg/ml), FIG. 80: acetonitrile, 50 mg/mL, 50° C., 1 d): Form I
Output Main phase [phase] (SLHT-1D-ACN(50 mg/ml)-vial attached, FIG. 92: acetonitrile, 50 mg/mL, 50° C., 1 d): Form I
Output Crystallinity [high/low/SC/oriented] [1]: high
Output Main phase [phase] [1]: Form I
Output Main phase [phase] (SLHT-1D-ACT(50 mg/ml), FIG. 80: acetone, 50 mg/mL, 40° C., 1 d): Form I
Output Crystallinity [high/low/SC/oriented] [2]: high
Output Main phase [phase] [2]: Form I
Output Main phase [phase] (SLHT-1D-BME, FIG. 75: butyl methyl ether, 10 mg/mL, 40° C., 1 d): Form I
Output Main phase [phase] (SLHT-1D-H2O, FIG. 75: water, 10 mg/mL, 50° C., 1 d): Form I
Output Main phase [phase] (SLHT-1D-HEP, FIG. 75: heptane, 10 mg/mL, 50° C., 1 d): Form I
Output Main phase [phase] (SLRT-1D-DMF(300 mg/ml), FIG. 81: dimethylformamide, 300 mg/mL, RT, 1 d): Form I
Output Main phase [phase] (SLRT-1D-ETA(20 mg/ml), FIG. 81: ethyl acetate, 20 mg/mL, RT, 1 d): Form I
Output Main phase [phase] (SLRT-2D-THF(170 mg/ml), FIG. 81: tetrahydrofuran, 169.7 mg/mL, RT, 2 d): Form I
Output Main phase [phase] (SLRT-3D-ACT(40 mg/ml), FIG. 78: acetone, 40 mg/mL, RT, 3 d): Form I
Output Main phase [phase] (SLRT-3D-BME, FIG. 73: butyl methyl ether, 10 mg/mL, RT, 3 d): Form I
Output Main phase [phase] (SLRT-3D-ETH(40 mg/ml), FIG. 78: ethanol, 40 mg/mL, RT, 3 d): Form I
Output Main phase [phase] (SLRT-3D-H2O, FIG. 73: water, 10 mg/mL, RT, 3 d): Form I
Output Main phase [phase] (SLRT-3D-HEP, FIG. 73: heptane, 10 mg/mL, RT, 3 d): Form I
Output Main phase [phase] (SLRT-6HRS-ACT(40 mg/ml), FIG. 81: acetone, 40 mg/mL, RT, 6 h): Form I
Output Main phase [phase] (SLRT-14D-2PR(100 mg/ml), FIG. 83: 2-propanol, 100 mg/mL, RT, 14 d): Form I
Output Main phase [phase] (SLRT-14D-ACN(100 mg/ml), FIG. 83: acetonitrile, 100 mg/mL, RT, 14 d): Form I
Output Main phase [phase] (SLRT-14D-ACT(40 mg/ml), FIG. 79: acetone, 40 mg/mL, RT, 14 d): Form I
Output Main phase [phase] (SLRT-14D-ACT(100 mg/ml), FIG. 83: acetone, 100 mg/mL, RT, 14 d): Form I
Output Main phase [phase] (SLRT-14D-BAC(100 mg/ml), FIG. 82: butyl acetate, 100 mg/mL, RT, 14 d): Form I
Output Crystallinity [high/low/SC/oriented] [3]: low
Output Main phase [phase] [3]: Form I
Output Main phase [phase] (SLRT-14D-ETA(100 mg/ml), FIG. 82: ethyl acetate, 100 mg/mL, RT, 14 d): Form I
Output Main phase [phase] (SLRT-14D-ETH(40 mg/ml), FIG. 79: ethanol, 40 mg/mL, RT, 14 d): Form I
Output Main phase [phase] (SLRT-14D-ETH(100 mg/ml), FIG. 82: ethanol, 100 mg/mL, RT, 14 d): Form I
Output Main phase [phase] (SLRT-14D-H2O, FIG. 74: water, 10 mg/mL, RT, 14 d): Form I
Output Main phase [phase] (SLRT-14D-HEP, FIG. 74: heptane, 10 mg/mL, RT, 14 d): Form I
Output Main phase [phase] (SLRT-14D-MET(50 mg/ml), FIG. 84: methanol, 50 mg/mL, RT, 14 d): Form I
Output Main phase [phase] (SLRT-14D-MIBK(100 mg/ml), FIG. 82: methyl isobutyl ketone, 100 mg/mL, RT, 14 d): Form I
Output Main phase [phase] (SLRT-14D-TOL(100 mg/ml), FIG. 83: toluene, 100 mg/mL, RT, 14 d): Form I
Polymorphic form recovered (XRPD) (all single solvent slurries): Form I

— US20250066286A1, “COMPOSITIONS OF (Z)-ENDOXIFEN AND METHODS OF ENRICHMENT THEREOF” (Atossa Therapeutics, Inc., priority 2022, published 2025)
